The values below come from patent US8242144B2, “Stilbenes and chalcones for the prevention and treatment of cardiovascular diseases” (Resverlogix Corp., priority 2004, dated 2012).

Each structure is given as a SMILES string.

One data set concerns human ApoA-I promoter. The experiment in a line: ApoA-I promoter induction in Caco-2 intestinal cells (pAI.474-Luc luciferase reporter). The data set is classed as cell-based. The note with it: Caco-2 cells, luciferase activity vs untreated/control, average values at 15 μM, 48 hours incubation. How it is done:
Briefly, the promoter region of the gene encoding human ApoA-I was isolated and ligated upstream of the firefly luciferase gene to construct the reporter plasmid pAI.474-Luc. This reporter plasmid and pRSV-β-galactosidase (as a control for transfection efficiency) were co-transfected to Caco-2 cells. The Caco-2 cells were then incubated in a MEM selection media containing 20% fetal calf serum supplemented with G418 (final concentration: 0.5 mg/mL, Gibco) to give established strains that stably express from the reporter gene. […] Cells were starved for 24 hrs in MEM selection media containing 0.5% FBS. Then, a solution of a compound of the invention in DMSO or other appropriate solvent was added to the wells at a final concentration of 0 to 100 μM in MEM selection media containing 0.5% FBS.
Measures of luciferase activity were normalized to lysate protein concentrations, measured using Bradford Reagent (BioRad Protein Assay reagent Cat#500-0006). The luciferase activity of cells treated with various concentrations of test compounds was compared to that of control sample (i.e., solvent without any compound of the present invention added) and untreated samples.
Consider `COc1ccc(C(=O)/C=C/c2ccc(O)cc2O)cc1` [2,4-Dihydroxy-4′-methoxy-chalcone], for which the “ApoA-I Promoter Induction” value is on record as “increased”.

`O=C(/C=C/c1ccc(O)cc1)c1ccc(O)cc1O` [4,2′,4′-Trihydroxy-chalcone]: the “ApoA-I Promoter Induction” value was “increased”.

On to `Oc1ccc(/C=C/c2ccc(O)cc2)cc1` [4,4′-dihydroxy-stilbene], for which the “ApoA-I Promoter Induction” value is “increased”. Same read-out and setting: the value for `O=C(/C=C/c1ccc(O)cc1)c1ccccc1` [4-Hydroxy-chalcone] was “increased”; that for `COc1ccc(/C=C/C(=O)c2ccccc2)cc1` [4-Methoxy-chalcone] was “increased”. As for `Oc1ccc(/C=C/c2cc(O)cc(O)c2)cc1` [Example 1, Resveratrol], the “ApoA-I Promoter Induction” value is “increased”.

In the case of `Oc1ccc(/C=C/c2ccc(O)nc2)cc1` [Example 2, 5-[(E)-2-(4-Hydroxy-phenyl)-vinyl]-pyridin-2-ol], the “ApoA-I Promoter Induction” value is “increased”. Still for that read-out and setting: the value for `COc1cc(O)ccc1/C=C/c1ccc(O)cc1` [Example 3, 4-[(E)-2-(4-Hydroxy-phenyl)-vinyl]-3-methoxy-phenol] was “increased”; that for `OCc1cc(O)ccc1/C=C/c1ccc(O)cc1` [Example 4, 3-Hydroxymethyl-4-[(E)-2-(4-hydroxy-phenyl)-vinyl]-phenol] was “increased”; that for `O=C(O)c1cc(/C=C/c2ccc(O)cc2)ccc1O` [Example 5, 2-Hydroxy-5-[(E)-2-(4-hydroxyphenyl)vinyl]benzoic acid] was “no”.

As for `O=[N+]([O-])c1cc(O)ccc1/C=C/c1ccc(O)cc1` [Example 6, 3-Nitro-4-[(E)-2-(4-hydroxyphenyl)-vinyl]phenol], the “ApoA-I Promoter Induction” value is listed as “increased”. The same measure, in the same setting: the value for `CCOC(=O)c1cc(/C=C/c2ccc(O)cc2)ccc1O` [Example 7, (E)-Ethyl 2-hydroxy-5-(4-hydroxystyryl) benzoate] was “increased”; that for `NC(=O)c1cc(/C=C/c2ccc(O)cc2)ccc1O` [Example 8, (E)-2-Hydroxy-5-(4-hydroxystyryl)benzamide] was “increased”; that for `Nc1cc(O)ccc1/C=C/c1ccc(O)cc1` [Example 10, 3-Amino-4-[(E)-2-(4-hydroxy-phenyl)vinyl]phenol] was “increased”. The same measure, in the same setting: the value for `CN(C)C(=O)c1cc(O)ccc1/C=C/c1ccc(O)cc1` [Example 12, 5-Hydroxy-2-[2-(4-hydroxyphenyl)vinyl]-N,N-dimethyl-benzamide] was “increased”; that for `Oc1ccc(CCc2ccc(O)cc2)cc1` [Example 17, 4-[4-Hydroxy-phenethyl]-phenol] was “increased”. On to `O=S(=O)(Nc1ccc(O)cc1)c1ccc(O)cc1` [Example 19, 4-Hydroxy-N-(4-hydroxyphenyl)-benzenesulfonamide], for which the “ApoA-I Promoter Induction” value is “increased”.

The subject of the next data set is human ApoA-I promoter. In words: ApoA-I promoter induction in HepG2 liver cells (pAI.474-Luc luciferase reporter). The data set is classed as cell-based. To be noted: luciferase activity vs untreated/control, average values at 15 μM, 48 hours incubation. As to the method: This study determined whether compounds of the invention have an effect on ApoA-I promoter activity expression in HepG2 cells, a liver cell line. Cells were grown under conditions recommended by the ATCC and summarized by Wong.
The promoter region of the gene encoding human ApoA-I was isolated and ligated upstream the structure gene of firefly luciferase to construct a reporter plasmid (pAI.474-Luc). The reporter plasmid, along with pRSV-β-galactosidase (as a control for transfection efficiency) were co-transfected into HepG2 cells. The cells were then incubated in an MEM selection medium containing 20% fetal calf serum supplemented with G418 (final concentration: 0.5 mg/mL, Gibco) to give established strains that stably express from the reporter gene. The strains were seeded to a 6-well culture plates and incubated for 48 hours at 37° C. under 5% carbon dioxide. Cells were starved for 24 hrs in MEM selection media containing 0.5% FBS. Then, a solution of the compounds of the invention in DMSO (or other appropriate solvent) was added to the wells at a final concentration of 0 to 100 μM in MEM selection media containing 0.5% FBS.
After further incubation for 48 hours, the cells were harvested and lysed using Reporter Lysis Buffer (PROMEGA E3971), and 50 μL of luciferase assay reagent (PROMEGA E4550 Luciferase Reporter 1000 assay system) were added to measure luciferase activity with a luminometer (Fluoroskan Ascent FL from Thermo electron Corporation). Measures of luciferase activity were normalized to lysate protein concentrations, measured using Bradford Reagent (Biorad Protein Assay reagent Cat#500-0006).
As to `Oc1ccc(/C=C/c2ccc(O)cc2)cc1` [4,4′-dihydroxy-stilbene], the “ApoA-I Promoter Induction” value is “increased”. Still for that read-out and setting: the value for `Oc1ccc(/C=C/c2cc(O)cc(O)c2)cc1` [Example 1, Resveratrol] was “increased”; that for `COc1cc(O)ccc1/C=C/c1ccc(O)cc1` [Example 3, 4-[(E)-2-(4-Hydroxy-phenyl)-vinyl]-3-methoxy-phenol] was “increased”.

In the case of `O=[N+]([O-])c1cc(O)ccc1/C=C/c1ccc(O)cc1` [Example 6, 3-Nitro-4-[(E)-2-(4-hydroxyphenyl)-vinyl]phenol], the “ApoA-I Promoter Induction” value is “increased”. On the same count and under the same terms, the value for `Oc1ccc(CCc2ccc(O)cc2)cc1` [Example 17, 4-[4-Hydroxy-phenethyl]-phenol] was “increased”.

For another data set, the system named is Caco-2 cells. The experiment in a line: Caco-2 permeability (in vitro Caco-2 intestinal transport model). The data set is classed as in vitro ADME, human. The note with it: in vitro Caco-2 intestinal transport model. An excerpt:
(§1) The Caco-2 cell drug transport model is widely used for screening compounds in drug discovery to assess intestinal transport and predict absorption rates. […] Sun et al., “In vitro testing of drug absorption for drug ‘developability’ assessment: forming an interface between in vitro preclinical data and clinical outcome,” Curr. Opin. Drug Discov. Devel.
For the molecule `CCCO` [Propanol, reference compound], the “% Transported Paap” value was 10.1 ×10⁻⁶ cm/s.

Tested on in another data set: not listed separately
The description is as above. The class given is in vitro ADME, human. To be noted: human, Caco-2.
Excerpt: as §1
`OCc1cc(O)ccc1/C=C/c1ccc(O)cc1` [Example 4, 3-Hydroxymethyl-4-[(E)-2-(4-hydroxy-phenyl)-vinyl]-phenol] gave a Papp of 1.79 ×10⁻⁶ cm/s.

On to `O=[N+]([O-])c1cc(O)ccc1/C=C/c1ccc(O)cc1` [Example 6, 3-Nitro-4-[(E)-2-(4-hydroxyphenyl)-vinyl]phenol], for which the Papp turned out to be 1.95 ×10⁻⁶ cm/s.

For `O=C(Oc1ccccn1)c1ccc(O)cc1` [Example 20, 4-Hydroxy-benzoic acid pyridin-2-yl ester], the apparent permeability coefficient (Papp) was 2 ×10⁻⁶ cm/s.

`Oc1ccc(/N=N/c2ccc(O)cc2)cc1` [Example 21, 4-(4-Hydroxy-phenyl)-azophenol] had a Papp of 8.73 ×10⁻⁶ cm/s.

The subject of the next data set is human ApoA-I promoter.
Test: not given
The note with it: Caco-2 cells, reported by Wong; cited from earlier work.
For `Oc1ccc(/C=C/c2cc(O)cc(O)c2)cc1` [resveratrol], the “stimulation of ApoA-I promoter activity at 4, 8, 16 and 24 hours following administration” value was “significant stimulation”.

Tested on in another data set: not given
Test: not given
Details: not given
For the molecule `COc1cc(O)ccc1/C=C/c1ccc(O)cc1` [Example 3, 4-[(E)-2-(4-Hydroxy-phenyl)-vinyl]-3-methoxy-phenol], the melting point is 192 to 194 °C. On the same count and under the same terms, the value for `OCc1cc(O)ccc1/C=C/c1ccc(O)cc1` [Example 4, 3-Hydroxymethyl-4-[(E)-2-(4-hydroxy-phenyl)-vinyl]-phenol] was 223 to 225 °C. `O=C(O)c1cc(/C=C/c2ccc(O)cc2)ccc1O` [Example 5, 2-Hydroxy-5-[(E)-2-(4-hydroxyphenyl)vinyl]benzoic acid] had a melting point of 241 to 243 °C. Still for that read-out and setting: the value for `O=[N+]([O-])c1cc(O)ccc1/C=C/c1ccc(O)cc1` [Example 6, 3-Nitro-4-[(E)-2-(4-hydroxyphenyl)-vinyl]phenol] was 237 to 240 °C; that for `CCOC(=O)c1cc(/C=C/c2ccc(O)cc2)ccc1O` [Example 7, (E)-Ethyl 2-hydroxy-5-(4-hydroxystyryl) benzoate] was 269 to 271 °C. Still for that read-out and setting: the value for `NC(=O)c1cc(/C=C/c2ccc(O)cc2)ccc1O` [Example 8, (E)-2-Hydroxy-5-(4-hydroxystyryl)benzamide] was 272 to 274 °C; that for `CS(=O)(=O)c1cc(O)ccc1/C=C/c1ccc(O)cc1` [Example 9, 4-[(E)-2-(4-Hydroxyphenyl)vinyl]-3-methanesulfonylphenol] was 244 to 245 °C. The same measure, in the same setting: the value for `Nc1cc(O)ccc1/C=C/c1ccc(O)cc1` [Example 10, 3-Amino-4-[(E)-2-(4-hydroxy-phenyl)vinyl]phenol] was 229 to 232 °C; that for `CC(=O)Nc1cc(O)ccc1/C=C/c1ccc(O)cc1` [Example 11, N-{5-Hydroxy-2-[(E)-2-(4-hydroxyphenyl)vinyl]phenyl}-acetamide] was 227 to 229 °C; that for `CN(C)C(=O)c1cc(O)ccc1/C=C/c1ccc(O)cc1` [Example 12, 5-Hydroxy-2-[2-(4-hydroxyphenyl)vinyl]-N,N-dimethyl-benzamide] was 183.5 to 187.7 °C.
